These cell lines were tested with C1CSC2=C(C(=O)N1)SC3=C2C=C(C=C3)O [kb NB 142-70] + O=C(c1cc(Cc2n[nH]c(=O)c3ccccc23)ccc1F)N1CCN(C(=O)C2CC2)CC1 [Olaparib] (partner 8 µM) (assay: relative viability (nuclei count vs DMSO), 5 days (fraction); higher = more cells survive). Conditions: first compound 0.1 µM.
Summary of the method: (§1)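 Lung cancer cell lines were seeded in 1536-well plates and dosed by pin tool the next day, with either a single drug or a fixed anchor-drug dose combined with five library-drug doses (not always all listed) spaced in √10 steps. Five days later, one step fixed the cells and stained their nuclei (final 0.05% Triton X-100, 1% formaldehyde, 1 ug/ml Hoechst), and nuclei were counted on 4× images. Relative viability is the nuclei count in treated wells divided by the count in vehicle wells, and each value is the median of duplicate plates.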

| Cell Line | relative viability |
| --- | --- |
| NCI-H1944 | 0.434 |
| NCI-H1975 | 0.81 |
| RERF-LC-KJ | 1.03 |
| ABC-1 | 0.712 |
| NCI-H358 | 0.531 |
| NCI-H650 | 0.417 |
| PC-3 [JPC-3] | 1.12 |

Same assay, conditions: first compound 1 µM

| Cell Line | relative viability |
| --- | --- |
| NCI-H1944 | 0.414 |
| NCI-H1975 | 0.883 |
| RERF-LC-KJ | 1.01 |
| ABC-1 | 0.746 |
| NCI-H358 | 0.489 |
| NCI-H650 | 0.374 |
| PC-3 [JPC-3] | 1.25 |

Same assay, conditions: first compound 3.162 µM

| Cell Line | relative viability |
| --- | --- |
| NCI-H1944 | 0.482 |
| NCI-H1975 | 0.35 |
| RERF-LC-KJ | 0.675 |
| ABC-1 | 0.427 |
| NCI-H358 | 0.297 |
| NCI-H650 | 0.267 |
| PC-3 [JPC-3] | 1.15 |

These cell lines were tested with NCC(=O)Nc1ccc(-n2nc(C(F)(F)F)cc2-c2ccc3c(ccc4ccccc43)c2)cc1 + COc1cc2c(Oc3ccc(NC(=O)C4(C(=O)Nc5ccc(F)cc5)CC4)cc3F)ccnc2cc1OCCCN1CCOCC1 [Foretinib] (partner 0.25 µM) in the same assay as above. Conditions: first compound 0.02 µM.
Summary of the method: as §1

| Cell Line | relative viability |
| --- | --- |
| NCI-H1944 | 0.795 |
| NCI-H1975 | 1.03 |
| RERF-LC-KJ | 0.963 |
| ABC-1 | 1.29 |
| NCI-H358 | 0.755 |
| NCI-H650 | 1.04 |
| PC-3 [JPC-3] | 1.08 |

Same assay, conditions: first compound 0.06325 µM

| Cell Line | relative viability |
| --- | --- |
| NCI-H1944 | 0.841 |
| NCI-H1975 | 0.94 |
| RERF-LC-KJ | 1.06 |
| ABC-1 | 1.15 |
| NCI-H358 | 0.721 |
| NCI-H650 | 1.07 |
| PC-3 [JPC-3] | 1.1 |

Same assay, conditions: first compound 0.2 µM

| Cell Line | relative viability |
| --- | --- |
| NCI-H1944 | 0.827 |
| NCI-H1975 | 1.08 |
| RERF-LC-KJ | 0.927 |
| NCI-H358 | 0.747 |
| NCI-H650 | 1.02 |
| PC-3 [JPC-3] | 1.12 |

Same assay, conditions: first compound 0.6325 µM

| Cell Line | relative viability |
| --- | --- |
| NCI-H1944 | 0.888 |
| NCI-H1975 | 1 |
| RERF-LC-KJ | 0.466 |
| ABC-1 | 0.988 |
| NCI-H358 | 0.683 |
| NCI-H650 | 1.01 |
| PC-3 [JPC-3] | 1.08 |

Same assay, conditions: first compound 2 µM

| Cell Line | relative viability |
| --- | --- |
| NCI-H1944 | 1.01 |
| NCI-H1975 | 0.984 |
| RERF-LC-KJ | 0.851 |
| ABC-1 | 1.2 |
| NCI-H358 | 0.816 |
| NCI-H650 | 1.09 |
| PC-3 [JPC-3] | 1.16 |

The cell lines below were run with NCC(=O)Nc1ccc(-n2nc(C(F)(F)F)cc2-c2ccc3c(ccc4ccccc43)c2)cc1 + Nc1ncn([C@H]2C[C@H](O)[C@@H](CO)O2)c(=O)n1 [Decitabine] (partner 2 µM) in the same assay as above. Conditions: first compound 0.02 µM.
Summary of the method: as §1

| Cell Line | relative viability |
| --- | --- |
| NCI-H1944 | 0.492 |
| NCI-H1975 | 0.407 |
| RERF-LC-KJ | 0.758 |
| ABC-1 | 0.917 |
| NCI-H358 | 0.217 |
| NCI-H650 | 0.34 |
